From ChEMBL document CHEMBL6134907, “Synthesis of 5,9- and 5,8-Diaminoalkoxy Substituted Benzophenanthridinone Analogues as Tyrosyl-DNA Phosphodiesterase 1 Inhibitors and Their Radiosensitizing Activity” (J Med Chem, 2025)
Active and inactive are the calls of the source. The rule behind the calls is not given here.

Experiments:
[1] = Cmax in male Sprague-Dawley rat at 5 mg/kg, IG measured up to 24 hrs by LCMS-MS analysis; assay type: ADME, organism-based; conditions: in vivo, po
[2] = tested on: HCT-116; assay: Induction of cell cycle arrest in human HCT-116 cells assessed as accumulation of cells at S phase at 10 uM measured after 24 hrs by Propidium iodide (PI) staining based assay (reference value: 13.96%); assay type: functional
[3] = tested on: HCT-116; assay: Induction of 4GY ionizing radiation (IR) induced apoptosis in human HCT-116 cells assessed as early apoptotic cells at 10 uM measured after 24 hrs by FITC Annexin V/PI apoptosis detection assay (reference value: 17.50%); assay type: functional
[4] = Oral bioavailability in male Sprague-Dawley rat at 5 mg/kg measured up to 24 hrs by LCMS-MS analysis; assay type: ADME, organism-based; conditions: in vivo
[5] = Cmax in male Sprague-Dawley rat at 1 mg/kg, iv measured up to 24 hrs by LCMS-MS analysis; assay type: ADME, organism-based; conditions: in vivo
[6] = tested on: HCT-116; assay: Synergistic cytotoxicity against human SgTDP1-HCT-116 cells (TDP1 knockout) assessed as combination index at 1 uM incubated for 48 hrs in presence of 2GY ionizing radiation; assay type: functional
[7] = Half life in male Sprague-Dawley rat at 1 mg/kg, iv measured up to 24 hrs by LCMS-MS analysis; assay type: ADME, organism-based; conditions: in vivo
[8] = tested on: HCT-116; assay: Induction of PIG3 transcription level in human HCT-116 cells measured after 24 hrs; assay type: functional, cell-based
[9] = tested on: HCT-116; assay: Induction of apoptosis in human HCT-116 cells assessed as viable cells at 5 uM measured after 24 hrs by FITC Annexin V/PI apoptosis detection assay (reference value: 99.71%); assay type: functional; conditions: read-out: Activity
[10] = Induction of 4GY ionizing radiation (IR) induced cell cycle arrest in human HCT-116 cells assessed as accumulation of cells at G0/G1 phase at 10 uM measured after 24 hrs by Propidium iodide (PI) staining based assay (reference value: 65.99%); assay type: functional
[11] = tested on: HCT-116; assay: Effect on Lig4 expression in wild type human HCT-116 cells assessed as change in mRNA level at 5 to 10 uM measured after 24 hrs by qRT-PCR analysis; assay type: functional, cell-based; conditions: dose 5-10 µM
[12] = tested on: HCT-116; assay: Reduction of XRCC4 expression in wild type human HCT-116 cells assessed as reduction in protein level at 5 to 10 uM measured after 24 hrs by Western blot analysis; assay type: functional, cell-based; conditions: dose 5-10 µM
[13] = tested on: HCT-116; assay: Induction of apoptosis in human HCT-116 cells assessed as late apoptotic cells at 10 uM measured after 24 hrs by FITC Annexin V/PI apoptosis detection assay (reference value: 0%); assay type: functional
[14] = tested on: HCT-116; assay: Induction of ionizing radiation (IR) induced gamma-H2AX level in human HCT-116 cells at 5 uM measured after 3 hrs by Western blot analysis; assay type: functional, cell-based
[15] = tested on: HCT-116; assay: Effect on Lig4 expression in wild type human HCT-116 cells assessed as change in mRNA level at 5 to 10 uM radiated with 4 GY ionizing radiation (IR) measured after 24 hrs by qRT-PCR analysis; assay type: functional, cell-based; conditions: dose 5-10 µM
[16] = tested on: HCT-116; assay: Induction of ROS generation in human HCT-116 cells assessed as intracellular ROS level at 10 uM under 4GY ionizing radiation (IR) measured after 20 mins by flow cytometry (reference value: 7.2%); assay type: functional
[17] = tested on: HCT-116; assay: Induction of ionizing radiation (IR) induced gamma-H2AX foci in human HCT-116 cells at 5 uM measured after 3 hrs by immunofluorescence assay; assay type: functional, cell-based
[18] = MRT infinity in male Sprague-Dawley rat at 1 mg/kg, iv measured up to 24 hrs by LCMS-MS analysis; assay type: ADME, organism-based; conditions: in vivo
[19] = AUC infinity in male Sprague-Dawley rat at 5 mg/kg, IG measured up to 24 hrs by LCMS-MS analysis; assay type: ADME, organism-based; conditions: in vivo, po
[20] = Induction of 4GY ionizing radiation (IR) induced cell cycle arrest in human HCT-116 cells assessed as accumulation of cells at G2/M phase at 10 uM measured after 24 hrs by Propidium iodide (PI) staining based assay (reference value: 20.51%); assay type: functional
[21] = Induction of 4GY ionizing radiation (IR) induced cell cycle arrest in human HCT-116 cells assessed as accumulation of cells at G2/M phase at 5 uM measured after 24 hrs by Propidium iodide (PI) staining based assay (reference value: 20.51%); assay type: functional
[22] = tested on: HCT-116; assay: Induction of gamma-H2AX level in human HCT-116 cells at 5 uM measured after 3 hrs by Western blot analysis; assay type: functional, cell-based
[23] = Toxicity in BALB/c mouse xenografted with human HCT-116 cells assessed as change in heart weight at 1 to 10 mg/kg, ip every day for 14 days radiated for every 2 days once; assay type: organism-based; conditions: in vivo, 336 h, dose 1-10 mg/kg, time 14 day
[24] = tested on: HCT-116; assay: Induction of 4GY ionizing radiation (IR) induced apoptosis in human HCT-116 cells assessed as late apoptotic cells at 10 uM measured after 24 hrs by FITC Annexin V/PI apoptosis detection assay (reference value: 14.32%); assay type: functional
[25] = tested on: HCT-116; assay: Induction of 4GY ionizing radiation (IR) induced apoptosis in human HCT-116 cells assessed as early apoptotic cells at 5 uM measured after 24 hrs by FITC Annexin V/PI apoptosis detection assay (reference value: 17.50%); assay type: functional
[26] = tested on: HCT-116; assay: Effect on Ku70/80 expression in wild type human HCT-116 cells assessed as change in protein level at 5 to 10 uM radiated with 4 GY ionizing radiation (IR) measured after 24 hrs by Western blot analysis; assay type: functional, cell-based; conditions: dose 5-10 µM
[27] = AUClast in male Sprague-Dawley rat at 1 mg/kg, iv measured up to 24 hrs by LCMS-MS analysis; assay type: ADME, organism-based; conditions: in vivo
[28] = tested on: HCT-116; assay: Induction of PIG3 expression in human HCT-116 cells xenografted BALB/c mouse tumor at 5 to 10 mg/kg, ip every day for 14 days by immunohistochemical analysis; assay type: functional, organism-based; conditions: dose 5-10 mg/kg, time 14.0 day
[29] = Toxicity in BALB/c mouse xenografted with human HCT-116 cells assessed as change in liver weight at 1 to 10 mg/kg, ip every day for 14 days radiated for every 2 days once; assay type: organism-based; conditions: in vivo, 336 h, dose 1-10 mg/kg, time 14 day
[30] = tested on: SW480; assay: Synergistic cytotoxicity against human SW480 cells assessed as combination index at 5 uM incubated for 48 hrs in presence of 2GY ionizing radiation (IR); assay type: functional
[31] = Half life in male Sprague-Dawley rat at 5 mg/kg, IG measured up to 24 hrs by LCMS-MS analysis; assay type: ADME, organism-based; conditions: in vivo, po
[32] = tested on: HCT-116; assay: Induction of 4GY ionizing radiation (IR) induced apoptosis in human HCT-116 cells assessed as late apoptotic cells at 5 uM measured after 24 hrs by FITC Annexin V/PI apoptosis detection assay (reference value: 14.32%); assay type: functional
[33] = tested on: HCT-116; assay: Radiosensitizing activity in human HCT-116 cells assessed as induction of 2 GY ionizing radiation (IR) induced cell killing effect; assay type: functional, cell-based
[34] = Induction of 4GY ionizing radiation (IR) induced cell cycle arrest in human HCT-116 cells assessed as accumulation of cells at G0/G1 phase at 5 uM measured after 24 hrs by Propidium iodide (PI) staining based assay (reference value: 65.99%); assay type: functional

Question: For COc1cc2c(=O)n(CCN(C)C)c3c4cc5c(cc4ccc3c2cc1OCCN1CCOCC1)OCO5, which Cmax [1] is on record?
Answer: The Cmax was 70.3 ng/mL.

Question: And the Activity [2]?
Answer: Its Activity is 10.2%.

Question: What about the Activity [3] of the same compound?
Answer: The Activity was 19.85%.

Question: And the bioavailability [4]?
Answer: Its bioavailability is 63.1%.

Question: What about the Cmax [5] of the same compound?
Answer: The Cmax was 221 ng/mL.

Question: What about the CI [6] of the same compound?
Answer: The CI was 0.46.

Question: And the half-life [7]?
Answer: The half-life was 172 min.

Question: And the Activity [8]?
Answer: The Activity was “Dose-dependent-effect”.

Question: And the viability at 5 µM [9]?
Answer: Its viability at 5 µM is 78.2%.

Question: And the Activity [10]?
Answer: Its Activity is 20.79%.

Question: And the Activity [11]?
Answer: The Activity was “inactive”.

Question: And the Activity [12]?
Answer: The Activity was “Active”.

Question: And the Activity [13]?
Answer: Its Activity is 13.67%.

Question: And the Activity [14]?
Answer: Its Activity is “Active”.

Question: And the Activity [15]?
Answer: The Activity was “inactive”.

Question: And the Activity [16]?
Answer: The Activity was 27.6%.

Question: What about the Activity [17] of the same compound?
Answer: The Activity was “Active”.

Question: What about the MRT inf [18] of the same compound?
Answer: Its MRT inf is 3.33 h.

Question: What about the AUC(0-inf) [19] of the same compound?
Answer: The AUC(0-inf) was 735 ng·h/mL.

Question: What about the Activity [20] of the same compound?
Answer: The Activity was 68.1%.

Question: And the Activity [21]?
Answer: The Activity was 43.13%.

Question: And the Activity [22]?
Answer: Its Activity is “Active”.

Question: What about the Activity [23] of the same compound?
Answer: The Activity was “Non-toxic”.

Question: And the Activity [24]?
Answer: The Activity was 23.04%.

Question: What about the Activity [25] of the same compound?
Answer: Its Activity is 19.39%.

Question: And the Activity [26]?
Answer: Its Activity is “inactive”.

Question: And the AUC(0-t) at 24 h [27]?
Answer: Its AUC(0-t) at 24 h is 247 ng·h/mL.

Question: What about the Activity [28] of the same compound?
Answer: The Activity was “Active”.

Question: And the Activity [29]?
Answer: The Activity was “Non-toxic”.

Question: What about the CI [30] of the same compound?
Answer: Its CI is <0.3.

Question: What about the half-life [31] of the same compound?
Answer: Its half-life is 278 min.

Question: What about the Activity [32] of the same compound?
Answer: The Activity was 18.62%.

Question: What about the Activity [33] of the same compound?
Answer: The Activity was “Active”.

Question: What about the Activity [34] of the same compound?
Answer: The Activity was 44.18%.
